{
  "source": "the supplement of paper PMC11208160",
  "data": [
    {"assay": "recombinant UMI read abundance after kanamycin selection (control-corrected) (log10(CPM+1)); higher = more efficient recombination; extreme values may be limits of the assay; sequences stand for … in AGTGCAGAGAAAATCGGCCAGTTTTCTCTGCCTGCAGTCCGCATGCCGTGGGACCCCTTGGGTTCTAACCTGTTGCCTAGATTTATGCAGCGGACTGCCTTTCTCCCAAAGTGATAAACCGG…AGGTTGGTTTCACT; site = the 11-nt donor", "outline": "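For the IS621 bridge recombinase, a pooled Escherichia coli screen tested donor and donor-binding-loop pairs. Cells received the pair library together with a target plasmid encoding a fixed target and T7-inducible recombinase, then went onto IPTG (0.07 mM) plus kanamycin or unselected plates in duplicate. After PCR across the donor–target junction and sequencing, recombinant UMI counts were normalized to CPM, averaged, and scaled by control-derived factors. Each value is given as log10(CPM+1).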", "values": [
      {"sequence": "CTATTCCCATGGACCGGTTTTCCCGGTAATCCGTATTTGCT (site CAATTCCCTAG)", "recombinant UMI read abundance (log10)": 0.77},
      {"sequence": "CAATGCTCATGGACCGGTTTTCCCGGTAATCCGTATTTGTA (site CAATGCTCTTT)", "recombinant UMI read abundance (log10)": 1.55},
      {"sequence": "CGATCATCATGGACCGGTTTTCCCGGTAATCCGTATTTGCT (site CGATCATCTAG)", "recombinant UMI read abundance (log10)": 1.82},
      {"sequence": "CGTTTGCCATGGACCGGTTTTCCCGGTAATCCGTATTTGCT (site CGTTTGGCTAG)", "recombinant UMI read abundance (log10)": 0.00559},
      {"sequence": "ATTGAGACATGGACCGGTTTTCCCGGTAATCCGTATTTGGC (site ATTGAGACTCC)", "recombinant UMI read abundance (log10)": 0.38},
      {"sequence": "GTAGGTGCATGGACCGGTTTTCCCGGTAATCCGTATTTGAC (site GTAGGTCCTGT)", "recombinant UMI read abundance (log10)": 0.618},
      {"sequence": "TCCAAATCATGGACCGGTTTTCCCGGTAATCCGTATTTGCC (site TCCAAATCTGG)", "recombinant UMI read abundance (log10)": 0},
      {"sequence": "TCGGTAGCATGGACCGGTTTTCCCGGTAATCCGTATTTGTG (site TCGGTAGCTCA)", "recombinant UMI read abundance (log10)": 0.629},
      {"sequence": "TAAGAGACATGGACCGGTTTTCCCGGTAATCCGTATTTGCG (site TAAGAGACTCG)", "recombinant UMI read abundance (log10)": 2.41},
      {"sequence": "CCCAACCCATGGACCGGTTTTCCCGGTAATCCGTATTTGTG (site CCCAACCCTCA)", "recombinant UMI read abundance (log10)": 0.0205},
      {"sequence": "TAAAGTCCATGGACCGGTTTTCCCGGTAATCCGTATTTGTA (site TGAAGTCCTTA)", "recombinant UMI read abundance (log10)": 0.00382},
      {"sequence": "GTTAGGACATGGACCGGTTTTCCCGGTAATCCGTATTTGGC (site GTTAGAACTGC)", "recombinant UMI read abundance (log10)": 1.16},
      {"sequence": "GGGGCACCATGGACCGGTTTTCCCGGTAATCCGTATTTGGA (site GGGGCACCTTG)", "recombinant UMI read abundance (log10)": 0},
      {"sequence": "ATAAGGTCATGGACCGGTTTTCCCGGTAATCCGTATTTGAC (site ATAAGGCCTGT)", "recombinant UMI read abundance (log10)": 1.04},
      {"sequence": "TCACCTTCATGGACCGGTTTTCCCGGTAATCCGTATTTGTT (site TCACCTTCTAA)", "recombinant UMI read abundance (log10)": 0.00377},
      {"sequence": "TGGCATCCATGGACCGGTTTTCCCGGTAATCCGTATTTGTT (site CGGAATCCTAA)", "recombinant UMI read abundance (log10)": 0},
      {"sequence": "CGGCGTTCATGGACCGGTTTTCCCGGTAATCCGTATTTGAC (site CGGCGTTCTGT)", "recombinant UMI read abundance (log10)": 1.69},
      {"sequence": "CGATCATCATGGACCGGTTTTCCCGGTAATCCGTATTTGCT (site CGTTCATCTGG)", "recombinant UMI read abundance (log10)": 0},
      {"sequence": "ATTTATACATGGACCGGTTTTCCCGGTAATCCGTATTTGAC (site ATATATACTGT)", "recombinant UMI read abundance (log10)": 0.718},
      {"sequence": "GTAGCGACATGGACCGGTTTTCCCGGTAATCCGTATTTGTC (site GTAGCGACTGA)", "recombinant UMI read abundance (log10)": 2.92},
      {"sequence": "CGTTAGACATGGACCGGTTTTCCCGGTAATCCGTATTTGTG (site CGTTAGACTCA)", "recombinant UMI read abundance (log10)": 1.14},
      {"sequence": "TAAATTCCATGGACCGGTTTTCCCGGTAATCCGTATTTGTA (site TAAATTCCTTA)", "recombinant UMI read abundance (log10)": 0.558},
      {"sequence": "CGATCATCATGGACCGGTTTTCCCGGTAATCCGTATTTGCT (site CAATCGTCTAG)", "recombinant UMI read abundance (log10)": 0.00456},
      {"sequence": "TTCTTCCCATGGACCGGTTTTCCCGGTAATCCGTATTTGGC (site TTCTTCCCTGC)", "recombinant UMI read abundance (log10)": 0},
      {"sequence": "GACAAACCATGGACCGGTTTTCCCGGTAATCCGTATTTGGT (site CACAAACCTAC)", "recombinant UMI read abundance (log10)": 0},
      {"sequence": "ATCCAAGCATGGACCGGTTTTCCCGGTAATCCGTATTTGTG (site ATCCAAGCTCA)", "recombinant UMI read abundance (log10)": 1.51},
      {"sequence": "TGTTAGACATGGACCGGTTTTCCCGGTAATCCGTATTTGAG (site CGTTAGACTCT)", "recombinant UMI read abundance (log10)": 0.204},
      {"sequence": "CCATACCCATGGACCGGTTTTCCCGGTAATCCGTATTTGCG (site CCATACCCTCG)", "recombinant UMI read abundance (log10)": 0.287},
      {"sequence": "AGGACCACATGGACCGGTTTTCCCGGTAATCCGTATTTGAC (site AGGACAACTGT)", "recombinant UMI read abundance (log10)": 0.0127},
      {"sequence": "TAAAGTCCATGGACCGGTTTTCCCGGTAATCCGTATTTGTA (site TATAGTCCTTA)", "recombinant UMI read abundance (log10)": 0.0492},
      {"sequence": "TAATGAGCATGGACCGGTTTTCCCGGTAATCCGTATTTGCG (site TAATGAGCTCG)", "recombinant UMI read abundance (log10)": 1.58},
      {"sequence": "GGATAAACATGGACCGGTTTTCCCGGTAATCCGTATTTGCC (site GGATATACTGG)", "recombinant UMI read abundance (log10)": 0},
      {"sequence": "GCCACGCCATGGACCGGTTTTCCCGGTAATCCGTATTTGTC (site GCCACGCCTAA)", "recombinant UMI read abundance (log10)": 0},
      {"sequence": "TCCACTTCATGGACCGGTTTTCCCGGTAATCCGTATTTGCC (site TCCACTTCTGG)", "recombinant UMI read abundance (log10)": 0},
      {"sequence": "GGTGAAGCATGGACCGGTTTTCCCGGTAATCCGTATTTGAG (site GGTGAAGCTCT)", "recombinant UMI read abundance (log10)": 1.82},
      {"sequence": "TTTGCGGCATGGACCGGTTTTCCCGGTAATCCGTATTTGCA (site TTTGCGGCTTG)", "recombinant UMI read abundance (log10)": 0.222},
      {"sequence": "CCGCGCACATGGACCGGTTTTCCCGGTAATCCGTATTTGTA (site CCGCGCACTTA)", "recombinant UMI read abundance (log10)": 0.0144},
      {"sequence": "CGGTATCCATGGACCGGTTTTCCCGGTAATCCGTATTTGTC (site CGGAATCCTAA)", "recombinant UMI read abundance (log10)": 0.00431},
      {"sequence": "TAATGAGCATGGACCGGTTTTCCCGGTAATCCGTATTTGGG (site TACTGAGCTCC)", "recombinant UMI read abundance (log10)": 0.00582},
      {"sequence": "CAGGCGTCATGGACCGGTTTTCCCGGTAATCCGTATTTGGA (site CAGGCGTCTTC)", "recombinant UMI read abundance (log10)": 1.89},
      {"sequence": "CGATCATCATGGACCGGTTTTCCCGGTAATCCGTATTTGCT (site CTACCATCTAG)", "recombinant UMI read abundance (log10)": 1.69},
      {"sequence": "TAATGAGCATGGACCGGTTTTCCCGGTAATCCGTATTTGGG (site TAATCAGCTCC)", "recombinant UMI read abundance (log10)": 0.0102},
      {"sequence": "CGCTGTCCATGGACCGGTTTTCCCGGTAATCCGTATTTGCA (site CGCTGTCCTTG)", "recombinant UMI read abundance (log10)": 0.989},
      {"sequence": "CAAGCCACATGGACCGGTTTTCCCGGTAATCCGTATTTGGG (site CAAGGCACTCC)", "recombinant UMI read abundance (log10)": 0.00628},
      {"sequence": "CGCTCCTCATGGACCGGTTTTCCCGGTAATCCGTATTTGCC (site CTCTCCTCTGG)", "recombinant UMI read abundance (log10)": 2.25},
      {"sequence": "AGGACCACATGGACCGGTTTTCCCGGTAATCCGTATTTGAC (site AGGACGACTGT)", "recombinant UMI read abundance (log10)": 0},
      {"sequence": "GATTATCCATGGACCGGTTTTCCCGGTAATCCGTATTTGTT (site GATTATCCTAT)", "recombinant UMI read abundance (log10)": 0},
      {"sequence": "ACTTAGACATGGACCGGTTTTCCCGGTAATCCGTATTTGGG (site ACTTAGACTCC)", "recombinant UMI read abundance (log10)": 0.0876},
      {"sequence": "GCCACGCCATGGACCGGTTTTCCCGGTAATCCGTATTTGTC (site GCCACGCCTCA)", "recombinant UMI read abundance (log10)": 0.015},
      {"sequence": "GCGTTAGCATGGACCGGTTTTCCCGGTAATCCGTATTTGTG (site GCGTTAGCTCA)", "recombinant UMI read abundance (log10)": 1.75},
      {"sequence": "AGCCTCGCATGGACCGGTTTTCCCGGTAATCCGTATTTGTT (site AGCCTAGCTAA)", "recombinant UMI read abundance (log10)": 0.0107},
      {"sequence": "AATTATGCATGGACCGGTTTTCCCGGTAATCCGTATTTGGT (site AATTATGCTTC)", "recombinant UMI read abundance (log10)": 0.0116},
      {"sequence": "CTTCTCTCATGGACCGGTTTTCCCGGTAATCCGTATTTGTA (site CTCCTCTCTTA)", "recombinant UMI read abundance (log10)": 1.89},
      {"sequence": "CGCTCCTCATGGACCGGTTTTCCCGGTAATCCGTATTTGCC (site CGCTCCTCTGG)", "recombinant UMI read abundance (log10)": 3.14},
      {"sequence": "AATGTACCATGGACCGGTTTTCCCGGTAATCCGTATTTGCT (site AATGTATCTAG)", "recombinant UMI read abundance (log10)": 0.926},
      {"sequence": "CCTAAAGCATGGACCGGTTTTCCCGGTAATCCGTATTTGCT (site CCTAAAGCTAT)", "recombinant UMI read abundance (log10)": 0},
      {"sequence": "AATGTACCATGGACCGGTTTTCCCGGTAATCCGTATTTGCT (site AATGTAGCTAG)", "recombinant UMI read abundance (log10)": 0.00499}
    ]}
  ]
}
